Columns and labels:
[1] = target: anti-vancomycin Fab fragment; test: BIAcore solution competition, equilibrium dissociation constant; assay type: binding, mouse; details: in solution, 20 nM Fab fragment; read-out: Equilibrium Dissociation Constant (KD)
Procedure: Biosensor surfaces were regenerated after each injection with successive 1 minute pulses of 6 M, 6M, and 1.5 M guanidine hydrochloride. Initial rates of binding of anti-vancomycin Fab fragment to the biosensor surface were measured over a 15 second window beginning 20 seconds postinjection. Data was evaluated by non-linear regression analysis using the solution affinity model built into BIAevaluation 3.0 software (BIAcore, Inc).
The binding affinities of several vancomycin analogs and tracers for anti-vancomycin Fab fragment were determined from solution competition experiments carried out on a BIAcore 2000. Initially, known concentrations of anti-vancomycin Fab fragment (0-22 nM) were injected over the aminoalkyl vancomycin biosensor surface. The initial rate of binding for each anti-vancomycin Fab fragment concentration was obtained by averaging the observed binding rate over a […] window beginning 20 seconds post injection. Data from the first 20 seconds of each sensorgram were omitted due to sample dispersion effects at the start of injections. A plot of initial binding rate versus concentration of anti-vancomycin Fab fragment was fit using a 4-parameter logistic (general model in BIAevaluation 3.0) providing a standard curve. […] A fixed concentration of anti-vancomycin Fab fragment (20 nM) was then mixed with twelve concentrations of each vancomycin analog or tracer and allowed to reach equilibrium. The equilibrium mixtures were individually injected over the aminoalkyl vancomycin biosensor surface, and the concentration of free anti-vancomycin Fab fragment remaining was quantitated by determination of the initial rate of binding to the biosensor surface as described above. A plot of free anti-vancomycin Fab fragment versus total concentration of added analog or tracer provides a competition curve. […] The data points represent the experimentally determined concentrations of free anti-vancomycin Fab fragment in equilibrium solutions at a given concentration of soluble analog or tracer. The curves represent the best nonlinear fit of the data using equation 1 (solution affinity model in BIAevaluation software) below: [formula]
where Fabτ is the concentration of free anti-vancomycin Fab fragment in equilibrium solutions, Fabτ is the total concentration of anti-vancomycin Fab fragment in solution (20 nM), A is the total concentration of added vancomycin analog or tracer, and KD is the equilibrium dissociation constant for the binding of the vancomycin analog or tracer to anti-vancomycin Fab fragment in solution.

[2] = test system: monoclonal antibody #15-109-592; test: Fluorescence polarization immunoassay of the present invention, cross reactivity; assay type: binding, mouse; details: for PRESENT INVENTION VALUES / PRESENT INVENTION cross reactivity: 0 ug/mL vancomycin
[3] = test system: sheep polyclonal antibodies against vancomycin; test: commercially available Abbott Vancomycin assay (TDX/TDXFLX FPIA), cross reactivity; assay type: binding; details: for COMMERCIAL ASSAY VALUES / COMMERCIAL ASSAY cross reactivity: 0 ug/mL vancomycin
Text: Commercially available fluorescent polarization assays (FPIA) for vancomycin are available. For instance, commercially available assays (Abbott […]® assays, (hereinafter referred to as the “commercially available Abbott Vancomycin assays(s)”)) include reagents for the quantitative measurement of vancomycin in serum or plasma samples. These assays use a vancomycin derivative labeled with a dichlorotriazinylaminofluorescein (DTAF) (hereinafter referred to as the “commercially available tracer”), and sheep polyclonal antibodies against vancomycin (hereinafter referred to as “commercially available antibodies”). […] In contrast, the commercially available vancomycin assay has elevated levels of CDP-I cross reactivity ranging from 39.58% to 65% with or without vancomycin present. […] (Refer to Table 3 for CDP-I cross-reactivity data.)

[4] = 40 ug/mL vancomycin, 1 ug/mL CDP-I
[5] = 40 ug/mL vancomycin, 10 ug/mL CDP-I
[6] = 40 ug/mL vancomycin, 50 ug/mL CDP-I
[7] = 40 ug/mL vancomycin, 100 ug/mL CDP-I
[8] = 80 ug/mL vancomycin, 1 ug/mL CDP-I
[9] = 80 ug/mL vancomycin, 10 ug/mL CDP-I
[10] = 80 ug/mL vancomycin, 50 ug/mL CDP-I
[11] = 80 ug/mL vancomycin, 100 ug/mL CDP-I

Compound: CN[C@H](CC(C)C)C(=O)N[C@H]1C(=O)N[C@@H](CC(N)=O)C(=O)N[C@H]2C(=O)N[C@H]3C(=O)N[C@H](C(=O)N[C@H](C(=O)O)c4cc(O)cc(O)c4-c4cc3ccc4O)[C@H](O)c3ccc(c(Cl)c3)Oc3cc2cc(c3O[C@@H]2O[C@H](CO)[C@@H](O)[C@H](O)[C@H]2O)Oc2ccc(cc2Cl)[C@H]1O [compound 5, Desvancosaminylvancomycin]
- Kd [1]: 587 ± 27 nM

Compound: CNC(CC(C)C)C(=O)NC1C(=O)NC(C(=O)O)CC(=O)NC2C(=O)NC3C(=O)NC(C(=O)NC(C(=O)O)c4cc(O)cc(O)c4-c4cc3ccc4O)C(O)c3ccc(c(Cl)c3)Oc3cc2cc(c3OC2OC(CO)C(O)C(O)C2OC2CC(C)(N)C(O)C(C)O2)Oc2ccc(cc2Cl)C1O (stereo not shown) [CDP-I, Crystalline Degradation Product I]
- PRESENT INVENTION VALUES ([2]; CDP-I 1 ug/mL): 0.22 µg/mL
- PRESENT INVENTION cross reactivity ([2]; CDP-I 1 ug/mL): N.D. (Less than sensitivity at 2.00 ug/mL vancomycin)
- PRESENT INVENTION VALUES ([2]; CDP-I 2.5 ug/mL): 0.15 µg/mL
- PRESENT INVENTION cross reactivity ([2]; CDP-I 2.5 ug/mL): N.D. (Less than sensitivity at 2.00 ug/mL vancomycin)
- PRESENT INVENTION VALUES ([2]; CDP-I 5 ug/mL): 0.26 µg/mL
- PRESENT INVENTION cross reactivity ([2]; CDP-I 5 ug/mL): N.D. (Less than sensitivity at 2.00 ug/mL vancomycin)
- PRESENT INVENTION VALUES ([2]; CDP-I 7 ug/mL): LOW
- PRESENT INVENTION cross reactivity ([2]; CDP-I 7 ug/mL): N.D. (Less than sensitivity at 2.00 ug/mL vancomycin)
- PRESENT INVENTION VALUES ([2]; CDP-I 10 ug/mL): 0.13 µg/mL
- PRESENT INVENTION cross reactivity ([2]; CDP-I 10 ug/mL): N.D. (Less than sensitivity at 2.00 ug/mL vancomycin)
- PRESENT INVENTION VALUES ([2]; CDP-I 15 ug/mL): LOW
- PRESENT INVENTION cross reactivity ([2]; CDP-I 15 ug/mL): N.D. (Less than sensitivity at 2.00 ug/mL vancomycin)
- PRESENT INVENTION VALUES ([2]; CDP-I 20 ug/mL): 0.46 µg/mL
- PRESENT INVENTION cross reactivity ([2]; CDP-I 20 ug/mL): N.D. (Less than sensitivity at 2.00 ug/mL vancomycin)
- PRESENT INVENTION VALUES ([2]; CDP-I 25 ug/mL): 0.18 µg/mL
- PRESENT INVENTION cross reactivity ([2]; CDP-I 25 ug/mL): N.D. (Less than sensitivity at 2.00 ug/mL vancomycin)
- PRESENT INVENTION VALUES ([2]; CDP-I 50 ug/mL): 0.67 µg/mL
- PRESENT INVENTION cross reactivity ([2]; CDP-I 50 ug/mL): N.D. (Less than sensitivity at 2.00 ug/mL vancomycin)
- PRESENT INVENTION [2, 4]: 40.86 µg/mL
- PRESENT INVENTION % C.R. [2, 4]: N.D. (Less than sensitivity at 2.00 ug/mL vancomycin)
- PRESENT INVENTION Diff/Sample-Control [2, 4]: -0.20 µg/mL
- PRESENT INVENTION [2, 5]: 40.50 µg/mL
- PRESENT INVENTION % C.R. [2, 5]: N.D. (Less than sensitivity at 2.00 ug/mL vancomycin)
- PRESENT INVENTION Diff/Sample-Control [2, 5]: -0.54 µg/mL
- PRESENT INVENTION [2, 6]: 39.13 µg/mL
- PRESENT INVENTION % C.R. [2, 6]: N.D. (Less than sensitivity at 2.00 ug/mL vancomycin)
- PRESENT INVENTION Diff/Sample-Control [2, 6]: -0.14 µg/mL
- PRESENT INVENTION [2, 7]: 37.22 µg/mL
- PRESENT INVENTION % C.R. [2, 7]: N.D. (Less than sensitivity at 2.00 ug/mL vancomycin)
- PRESENT INVENTION Diff/Sample-Control [2, 7]: 0.24 µg/mL
- PRESENT INVENTION % C.R. [2, 8]: N.D. (Less than sensitivity at 2.00 ug/mL vancomycin)
- PRESENT INVENTION Diff/Sample-Control [2, 8]: -0.64 µg/mL
- PRESENT INVENTION [2, 9]: 79.49 µg/mL
- PRESENT INVENTION % C.R. [2, 9]: N.D. (Less than sensitivity at 2.00 ug/mL vancomycin)
- PRESENT INVENTION Diff/Sample-Control [2, 9]: -0.50 µg/mL
- PRESENT INVENTION [2, 10]: 74.41 µg/mL
- PRESENT INVENTION % C.R. [2, 10]: N.D. (Less than sensitivity at 2.00 ug/mL vancomycin)
- PRESENT INVENTION Diff/Sample-Control [2, 10]: -0.83 µg/mL
- PRESENT INVENTION [2, 11]: 71.22 µg/mL
- PRESENT INVENTION % C.R. [2, 11]: N.D. (Less than sensitivity at 2.00 ug/mL vancomycin)
- PRESENT INVENTION Diff/Sample-Control [2, 11]: -0.26 µg/mL
- cross-reactivity ([2]; vancomycin 0, 40, 80 μg/mL, cross reactants 0, 1, 10, 50, 100 μg/mL): less than 2%
- COMMERCIAL ASSAY VALUES ([3]; CDP-I 1 ug/mL): 0.92 µg/mL
- COMMERCIAL ASSAY cross reactivity ([3]; CDP-I 1 ug/mL): N.D. (Less than sensitivity at 2.00 ug/mL vancomycin)
- COMMERCIAL ASSAY VALUES ([3]; CDP-I 2.5 ug/mL): 1.61 µg/mL
- COMMERCIAL ASSAY cross reactivity ([3]; CDP-I 2.5 ug/mL): N.D. (Less than sensitivity at 2.00 ug/mL vancomycin)
- COMMERCIAL ASSAY VALUES ([3]; CDP-I 5 ug/mL): 3.25 µg/mL
- COMMERCIAL ASSAY cross reactivity ([3]; CDP-I 5 ug/mL): 65%
- COMMERCIAL ASSAY VALUES ([3]; CDP-I 7 ug/mL): 4.54 µg/mL
- COMMERCIAL ASSAY cross reactivity ([3]; CDP-I 7 ug/mL): 64.86%
- COMMERCIAL ASSAY VALUES ([3]; CDP-I 10 ug/mL): 6.42 µg/mL
- COMMERCIAL ASSAY cross reactivity ([3]; CDP-I 10 ug/mL): 64.2%
- COMMERCIAL ASSAY VALUES ([3]; CDP-I 15 ug/mL): 8.87 µg/mL
- COMMERCIAL ASSAY cross reactivity ([3]; CDP-I 15 ug/mL): 59.13%
- COMMERCIAL ASSAY VALUES ([3]; CDP-I 20 ug/mL): 11.04 µg/mL
- COMMERCIAL ASSAY cross reactivity ([3]; CDP-I 20 ug/mL): 55.20%
- COMMERCIAL ASSAY VALUES ([3]; CDP-I 25 ug/mL): 12.94 µg/mL
- COMMERCIAL ASSAY cross reactivity ([3]; CDP-I 25 ug/mL): 51.76%
- COMMERCIAL ASSAY VALUES ([3]; CDP-I 50 ug/mL): 19.79 µg/mL
- COMMERCIAL ASSAY cross reactivity ([3]; CDP-I 50 ug/mL): 39.58%
- COMMERCIAL ASSAY [3, 4]: 39.99 µg/mL
- COMMERCIAL ASSAY % C.R. [3, 4]: N.D. (Less than sensitivity at 2.00 ug/mL vancomycin)
- COMMERCIAL ASSAY Diff/Sample-control [3, 4]: 1.05 µg/mL
- COMMERCIAL ASSAY [3, 5]: 43.74 µg/mL
- COMMERCIAL ASSAY % C.R. [3, 5]: 48%
- COMMERCIAL ASSAY Diff/Sample-control [3, 5]: 4.80 µg/mL
- COMMERCIAL ASSAY [3, 6]: 55.49 µg/mL
- COMMERCIAL ASSAY % C.R. [3, 6]: 36.66%
- COMMERCIAL ASSAY Diff/Sample-control [3, 6]: 18.33 µg/mL
- COMMERCIAL ASSAY [3, 7]: 67.35 µg/mL
- COMMERCIAL ASSAY % C.R. [3, 7]: 30.85%
- COMMERCIAL ASSAY Diff/Sample-control [3, 7]: 30.85 µg/mL
- COMMERCIAL ASSAY [3, 8]: 78.85 µg/mL
- COMMERCIAL ASSAY % C.R. [3, 8]: N.D. (Less than sensitivity at 2.00 ug/mL vancomycin)
- COMMERCIAL ASSAY Diff/Sample-control [3, 8]: -0.68 µg/mL
- COMMERCIAL ASSAY [3, 9]: 83.34 µg/mL
- COMMERCIAL ASSAY % C.R. [3, 9]: 38.1%
- COMMERCIAL ASSAY Diff/Sample-control [3, 9]: 3.81 µg/mL
- COMMERCIAL ASSAY % C.R. [3, 10]: HI ((>100))
- COMMERCIAL ASSAY Diff/Sample-control [3, 10]: HI ((>100))
- COMMERCIAL ASSAY ug/mL [3, 10]: HI ((>100))
- COMMERCIAL ASSAY % C.R. [3, 11]: HI ((>100))
- COMMERCIAL ASSAY Diff/Sample-control [3, 11]: HI ((>100))
- COMMERCIAL ASSAY ug/mL [3, 11]: HI ((>100))

— US20040209318A1, “Reagents and methods for the detection and quantification of vancomycin in bilogical fluids” (priority 1995, published 2004)
